Assay results published in US9956157B2, “Composition containing fucosterol for skin whitening or moisturizing” (INDUSTRY-ACADEMIC COOPERATION FOUNDATION, YONSEI UNIVERSITY, priority 2014, dated 2018).

How the values were obtained:
Format in all cases: cell-based
involucrin = experiment: Involucrin mRNA expression (RT-PCR) in HaCaT human keratinocytes; conditions: HaCaT cells, fucosterol 5, 10, 20 μM, 24 hrs, FIG. 9
Method: (§1) HaCaT human keratinocytes were incubated in a Dulbecco's Modified Eagle's Media (DMEM) medium including 10% fetal bovine serum and then put in a 6-well plate with 2×10^5 cell/ml (the final volume of 3 ml). After being incubated for 24 hrs, the medium was removed and fucosterol which was dissolved in the DMEM medium was treated at 5, 10, and 20 μM concentrations, respectively. After 24 hrs, the total RNA was collected by using a TRIzol reagent (Invitrogen, Carlsbad, Calif., USA) and reverse-transcribed and then a reverse transcription-polymerase chain reaction (RT-PCR) analysis was performed below. First, for cDNA synthesis, the RNA was reverse-transcribed by reverse transcriptase. The RT-PCR was performed by specific primers below and the result was illustrated in FIG. 9.

[1] = test system: TRP-1 (tyrosinase-related protein 1); experiment: TRP-1 protein expression (western blot) in B16F10 melanoma cells; conditions: 200 nM α-MSH, fucosterol 5 and 20 μM, 24 hrs, FIG. 6
Method: B16F10 melanoma cells were incubated in a DMEM medium including 10% fetal bovine serum and then added in a 6-well plate with 2.5×10^5 cell/mL (the final volume of 3 mL). After being incubated for 24 hrs, the medium was removed and fucosterol which was dissolved in the DMEM medium including 200 nM α-MSH was treated at 5 and 20 μM of concentrations, respectively. The cells after 24 hrs were lysed with a NP40 buffer solution including proteinase inhibitor cocktail and the protein amount extracted from the cells was quantified by using a Bradford reagent. The quantified protein was boiled for 5 min and isolated by electrophoresis with 10% SDS-PAGE to transfer the isolated proteins to a nitrocellular membrane. A primary antibody of […] and […] was diluted in 2.5% bovine serum albumin at a ratio of 1:1000 and reacted with the protein transferred to the nitrocellular membrane for 20 hrs at room temperature. The primary antibody was reacted and then the nitrocellular membrane was washed three times by using the TBST for 10 min. […] As the measured result, the protein expression of […] and […] was verified and it was shown that the loading amount of the protein was constant by α-tubulin.

loricrin [2] = experiment: Loricrin protein expression (western blot) in HaCaT human keratinocytes; conditions: HaCaT cells, fucosterol 5, 10, 20 μM, 24 hrs, FIG. 10
Method: HaCaT human keratinocytes were incubated in a Dulbecco's Modified Eagle's Media (DMEM) medium including 10% fetal bovine serum and then put in a 6-well plate with 2×10^5 cell/ml (the final volume of 3 ml). After being incubated for 24 hrs, the medium was removed and fucosterol which was dissolved in the DMEM medium was treated at 5, 10, and 20 μM concentrations, respectively. After 24 hrs, the HaCaT human keratinocytes were lysed with a NP40 buffer solution including proteinase inhibitor cocktail. The protein amount extracted from the HaCaT human keratinocytes was quantified by using a Bradford method. The sample was boiled for 5 min and then the same amount of protein ([…]) was isolated by electrophoresis with 10% SDS-PAGE. The isolated proteins after electrophoresis were transferred to a nitrocellular membrane and western blot was performed. A primary antibody was reacted and the nitrocellular membrane was washed three times by using Tris-buffer saline tween20 (TBST) for 10 min. In this case, the kind and the dilution of the primary antibody used in the present invention is 1:1000. In a secondary antibody reaction, a secondary antibody was put in the membrane performing the primary antibody reaction and reacted for 2 hrs at room temperature. In this case, a dilution of the secondary antibody was 1:5000. […]

B16F10 melanoma cells = experiment: Melanin generation in α-MSH-stimulated B16F10 melanoma cells (absorbance 405 nm); conditions: 200 nM α-MSH, fucosterol 5, 10, 20 μM, 72 hrs, P<0.01, FIG. 2
Method: B16F10 melanoma cells were incubated in a DMEM medium including 10% fetal bovine serum and then added in a 6-well plate with 2.5×10^5 cell/mL (the final volume of 3 mL). After being incubated for 24 hrs, the medium was removed and fucosterol which was dissolved in the DMEM medium including 200 nM α-MSH was treated at 5, 10, and 20 μM concentrations, respectively. After 72 hrs, the incubated medium was removed from the 6-well plate and 0.25% trypsin-ethylenediaminetetraacetate (trypsin-EDTA) solution was treated to collect a cell pellet, and the cell pellet was transferred to a 1.5 mL tube and centrifuged for 10 min at 10,000 rpm to remove a supernatant. […] This solution was diluted with phosphate buffered saline (PBS) and then the melanin content in a sample treatment group was calculated by measuring absorbance at 405 nm by an ELISA reader (Versa max, Sunnyvale, Calif., USA). In this case, cells without the fucosterol were set to a control group and the melanin generation degree was measured in the control group and cells treated with the fucosterol. According to Equation 1 below, the melanin content compared with the control group was calculated and the result was illustrated in FIG. 2. Melanin content (%) compared with control group=absorbance of each test material/absorbance of control group×100 [Equation 1]

loricrin [3] = experiment: Loricrin mRNA expression (RT-PCR) in HaCaT human keratinocytes; conditions: HaCaT cells, fucosterol 5, 10, 20 μM, 24 hrs, FIG. 9
Method: as §1

tyrosinase = experiment: Tyrosinase protein expression (western blot) in B16F10 melanoma cells; conditions: 200 nM α-MSH, fucosterol 5 and 20 μM, 24 hrs, FIG. 5
Method: B16F10 melanoma cells were incubated in a DMEM medium including 10% fetal bovine serum and then added in a 6-well plate with 2.5×10^5 cell/mL (the final volume of 3 mL). After being incubated for 24 hrs, the medium was removed and fucosterol which was dissolved in the DMEM medium including 200 nM α-MSH was treated at 5 and 20 μM of concentrations, respectively. The cells after 24 hrs were lysed with a NP40 buffer solution including proteinase inhibitor cocktail and the protein amount extracted from the cells was quantified by using a Bio-Rad protein assay dye (Bradford) reagent. The quantified protein was boiled for 5 min and isolated by electrophoresis with 10% SDS-PAGE to transfer the isolated proteins to a nitrocellular membrane. A primary antibody of tyrosinase was diluted in 2.5% bovine serum albumin at a ratio of 1:1000 and reacted with the protein transferred to the nitrocellular membrane for 20 hrs at room temperature. The primary antibody was reacted and the nitrocellular membrane was washed by using tris-buffer saline tween 20 (TBST) three times for 10 min. […] As the measured result, the protein expression of tyrosinase was verified and the loading amount of the protein was constant by α-tubulin.

## C/C=C(\CC[C@@H](C)[C@H]1CC[C@H]2[C@@H]3CC=C4C[C@@H](O)CC[C@]4(C)[C@H]3CC[C@]12C)C(C)C [fucosterol]
involucrin
  mRNA expression of involucrin: increased
[1]
  protein expression of TRP-1: reduced
Loricrin [2]
  protein expression of loricrin: increased
B16F10 melanoma cells
  inhibitory effect on melanin generation: very excellent inhibitory effect
Loricrin [3]
  mRNA expression of loricrin: increased
tyrosinase
  protein expression of tyrosinase: reduced
